Data on 21 compounds can be found in US12576087B2, “Aryloxypiperidine pyrazole compounds as indoleamine 2,3-dioxygenase inhibitors” (Merck Sharp & Dohme LLC, priority 2018, dated 2026).

Broadly, the IC50 is the concentration that inhibits the measured activity by half.

For one test, the target named is IDO1 (Homo sapiens, UniProt P14902). The experiment in a line: IDO1 Human Whole Blood Assay. The class given is cell-based. The conditions noted are these: WBLD taken as whole blood; read-out: WBLD IC50. On the procedure: Compounds to be tested were serially diluted in ten 3-fold steps in DMSO starting from 10 mM. 3 μL of compound dilutions or DMSO alone were then dispensed from the dilution plate into a polypropylene 96-well assay plate containing 97 μL of RPMI medium using an Echo 555 acoustic liquid handler (Labcyte). LPS and IFNγ was prepared in RPMI medium to a 10× of final conc. (1000 ng/mL), final concentration is 100 ng/mL.
Sequence of IDO1 (P14902 whole entry): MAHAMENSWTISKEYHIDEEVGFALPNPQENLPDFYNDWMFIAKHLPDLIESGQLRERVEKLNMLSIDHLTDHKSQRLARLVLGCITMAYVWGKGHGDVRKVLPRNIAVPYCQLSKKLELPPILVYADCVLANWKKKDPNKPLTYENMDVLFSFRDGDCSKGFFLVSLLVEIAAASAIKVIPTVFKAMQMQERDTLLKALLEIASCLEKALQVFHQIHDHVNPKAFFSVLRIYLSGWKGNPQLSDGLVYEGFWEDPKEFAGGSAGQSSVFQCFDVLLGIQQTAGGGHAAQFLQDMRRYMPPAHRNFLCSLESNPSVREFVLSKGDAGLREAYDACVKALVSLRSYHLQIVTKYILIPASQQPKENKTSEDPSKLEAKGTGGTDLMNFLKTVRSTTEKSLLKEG
Human whole blood was drawn in sodium heparin coated tubes from healthy internal donors. 240 μL of blood was transferred to each of the wells of a v-bottom 96 well plate. 30 μL of compound was transferred from intermediate dilution plate, and incubated for 15 min. 30 μL from stimulants was then transferred to blood and mixed thoroughly. Plate was covered with breathable membrane and incubated at 37° C. for overnight (18 h).
On day 2, isotope labeled standard solutions of kunurenine and tryptophan was made in water at 10× concentration and 30 μL was added to the blood at 3 μM final concentration. The assay plates were centrifuged at 300×G for 10 min with no brake to separate plasma from red blood cells. 60 μL of plasma samples was removed without disturbing red blood cells. Plasma was diluted with RPMI in 1:1 ratio and proteins were precipitated out with two volumes of Acetonitrile. The plates were centrifuged at 4000×G for 60 min. 20 μL of supernatant was carefully transferred to a 384 well plate containing 40 μL of 0.1% formic acid in water and analyzed by LC/MS/MS.
LC/MS/MS analyses were performed using Thermo Fisher's LX4-TSQ Quantum Ultra system. This system consists of four Agilent binary high-performance liquid chromatography (HPLC) pumps and a TSQ Quantum Ultra triple quadrupole MS/MS instrument. For each sample, 5 μL were injected onto an Atlantis T3 column (2.1 mm×150 mm, 3 μm particle size) from Waters. The mobile phase gradient pumped at 0.8 mL/min was used to elute the analytes from the column at 25° C. The elution started at 0% B increasing linearly to 25% B at 6.5 min, holding at 25% for 1 min, re-equilibrating to 10 min. Mobile phase A consisted of 0.1% formic acid in water. Mobile phase B consisted of 0.1% of formic acid in acetonitrile. Data were acquired in positive mode using a HESI interface. The operational parameters for the TSQ Quantum Ultra instrument were a spray voltage of 4000 V, capillary temperature of 380° C., vaporizer temperature 400° C., shealth gas 60 arbitrary units, Aux gas 20 arbitrary units, tube lens 85 and collision gas 1.2 mTorr. SRM chromatograms of kynurenine (Q1: 209.2>Q3:94.0) and internal standard (Q1: 215.3>Q3:98.2) were collected for 90 sec. The peak area was integrated by Xcalibur Quan software. The ratios between the kynurenine generated in the reaction and 2D6-Kynurenine spiked-in internal standard were used to generate percentage inhibition and IC50 values. Compounds were titrated and IC50's were calculated by 4 parameter sigmoidal curve fitting formula.
In the case of `Cc1ccccc1NC1CCN(C(=O)Cn2nc(C(=O)N3CCC(F)(CO)CC3)c3c2C[C@H]2C[C@@H]32)CC1` [Example 176, 2-((3bR,4aR)-3-(4-Fluoro-4-(hydroxymethyl)piperidine-1-carbonyl)-3b,4,4a,5-tetrahydro-1H-cyclopropa[3,4]cyclopenta[1,2-c]pyrazol-1-yl)-1-(4-(o-tolylamino)piperidin-1-yl)ethan-1-one], the IC50 turned out to be 396 nM. Turning to `Cc1ccccc1OC1CCN(C(=O)Cn2nc(C(=O)N3CC[C@@H](O)[C@@H](F)C3)c3c2CCCC3)CC1` [Example 36, 2-(3-((3S,4R)-3-fluoro-4-hydroxypiperidine-1-carbonyl)-4,5,6,7-tetrahydro-1H-indazol-1-yl)-1-(4-(o-tolyloxy)piperidin-1-yl)ethanone], the IC50 is 108 nM. Same read-out and setting: under `C[C@@H]1CN(C(=O)c2nn(CC(=O)N3CCC(Oc4ccc(F)cc4Cl)CC3)c3c2CCC3)C[C@H](C)O1` [Example 117, 1-[4-(2-chloro-4-fluorophenoxy)piperidin-1-yl]-2-{3-[(2R,6S)-2,6-dimethylmorpholine-4-carbonyl]-5,6-dihydrocyclopenta[c]pyrazol-1(4H)-yl}ethan-1-one] stands 490 nM; under `Cc1ccc(Cl)c(OC2CCN(C(=O)Cn3nc(C(=O)N4C[C@@H](C)O[C@@H](C)C4)c4c3CCC4)CC2)c1` [Example 93, 1-[4-(2-chloro-5-methylphenoxy)piperidin-1-yl]-2-{3-[(2R,6S)-2,6-dimethylmorpholine-4-carbonyl]-5,6-dihydrocyclopenta[c]pyrazol-1(4H)-yl}ethan-1-one], 265 nM; under `Cc1ccccc1OC1CCN(C(=O)Cn2nc(C(=O)N3C[C@@H](C)O[C@@H](C)C3)c3c2CCC3)CC1` [Example 116, 2-{3-[(2R,6S)-2,6-dimethylmorpholine-4-carbonyl]-5,6-dihydrocyclopenta[c]pyrazol-1(4H)-yl}-1-[4-(2-methylphenoxy)piperidin-1-yl]ethan-1-one], 46.8 nM. Still for that read-out and setting: under `Cc1ccccc1OC1CCN(C(=O)Cn2nc(C(=O)N3CC[C@@H](O)[C@@H](F)C3)c3c2C[C@H]2C[C@@H]32)CC1` [Example 27, 2-((3bR,4aR)-3-((3S,4R)-3-fluoro-4-hydroxypiperidine-1-carbonyl)-3b,4,4a,5-tetrahydro-1H-cyclopropa[3,4]cyclopenta[1,2-c]pyrazol-1-yl)-1-(4-(o-tolyloxy)piperidin-1-yl)ethanone] stands 26.3 nM; under `Cc1ccccc1OC1CCN(C(=O)Cn2nc(C(=O)N3CCC(F)(CO)CC3)c3c2CCC3)CC1` [Example 30, 2-(3-(4-fluoro-4-(hydroxymethyl)piperidine-1-carbonyl)-5,6-dihydrocyclopenta[c]pyrazol-1(4H)-yl)-1-(4-(o-tolyloxy)piperidin-1-yl)ethanone], 188 nM.

On to `CC(=O)NC1CCN(C(=O)c2nn(CC(=O)N3CCC(Oc4ccccc4Cl)CC3)c3c2CCCC3)CC1` [Example 6, N-(1-(1-(2-(4-(2-chlorophenoxy)piperidin-1-yl)-2-oxoethyl)-4,5,6,7-tetrahydro-1H-indazole-3-carbonyl)piperidin-4-yl)acetamide], for which the concentration for half-maximal inhibition (IC50) was found to be 596 nM.

In the case of `Cc1cc(F)ccc1OC1CCN(C(=O)Cn2nc(C(=O)N3CCC(F)(CO)CC3)c3c2CCCC3)CC1` [Example 78, 2-[3-[4-fluoro-4-(hydroxymethyl)piperidine-1-carbonyl]-4,5,6,7-tetrahydroindazol-1-yl]-1-[4-(4-fluoro-2-methyl-phenoxy)-1-piperidyl]ethanone], the IC50 worked out at 19.7 nM. Same read-out and setting: under `Cc1ccccc1OC1CCN(C(=O)Cn2nc(C(=O)N3CC[C@@H](O)[C@@H](F)C3)c3c2CCC3)CC1` [Example 40, 2-(3-((3S,4R)-3-fluoro-4-hydroxypiperidine-1-carbonyl)-5,6-dihydrocyclopenta[c]pyrazol-1(4H)-yl)-1-(4-(o-tolyloxy)piperidin-1-yl)ethanone] stands 107 nM; under `C[C@@H]1CN(C(=O)c2nn(CC(=O)N3CCC(Oc4cc(F)ccc4Cl)CC3)c3c2CCC3)C[C@H](C)O1` [Example 133, 1-[4-(2-chloro-5-fluorophenoxy)piperidin-1-yl]-2-{3-[(2R,6S)-2,6-dimethylmorpholine-4-carbonyl]-5,6-dihydrocyclopenta[c]pyrazol-1(4H)-yl}ethan-1-one], 150 nM. Turning to `Cc1ccccc1OC1CCN(C(=O)Cn2nc(C(=O)N3CCC(OCCO)CC3)c3c2CCC3)CC1` [Example 19, 2-(3-(4-(2-hydroxyethoxy)piperidine-1-carbonyl)-5,6-dihydrocyclopenta[c]pyrazol-1(4H)-yl)-1-(4-(o-tolyloxy)piperidin-1-yl)ethanone], the IC50 came to 27.3 nM. The same measure, in the same setting: as for `CC(=O)NC1CCN(C(=O)c2nn(CC(=O)N3CCC(Oc4ccccc4C)CC3)c3c2CCCC3)CC1` [Example 24, N-(1-(1-(2-oxo-2-(4-(o-tolyloxy)piperidin-1-yl)ethyl)-4,5,6,7-tetrahydro-1H-indazole-3-carbonyl)piperidin-4-yl)acetamide], the figure is 314 nM. As to `C[C@@H]1CN(C(=O)c2nn(CC(=O)N3CCC(Oc4cccc(F)c4)CC3)c3c2CCC3)C[C@H](C)O1` [Example 99, 2-{3-[(2R,6S)-2,6-dimethylmorpholine-4-carbonyl]-5,6-dihydrocyclopenta[c]pyrazol-1(4H)-yl}-1-[4-(3-fluorophenoxy)piperidin-1-yl]ethan-1-one], the 50% inhibitory concentration (IC50) was found to be 575 nM. Same read-out and setting: as for `C[C@@H]1C[C@H](Oc2ncccc2C(F)(F)F)CCN1C(=O)Cn1nc(C(=O)N2CCC(OCCO)CC2)c2c1C[C@H]1C[C@@H]21` [Example 8, 2-((3bR,4aR)-3-(4-(2-hydroxyethoxy)piperidine-1-carbonyl)-3b,4,4a,5-tetrahydro-1H-cyclopropa[3,4]cyclopenta[1,2-c]pyrazol-1-yl)-1-((2R,4R)-2-methyl-4-((3-(trifluoromethyl)pyridin-2-yl)oxy)piperidin-1-yl)ethanone], the figure is 212 nM. The same measure, in the same setting: under `Cc1ccccc1OC1CCN(C(=O)Cn2nc(C(=O)N3CC[C@H](O)[C@H](F)C3)c3c2CCCC3)CC1` [Example 31, 2-(3-((3R,4S)-3-fluoro-4-hydroxypiperidine-1-carbonyl)-4,5,6,7-tetrahydro-1H-indazol-1-yl)-1-(4-(o-tolyloxy)piperidin-1-yl)ethanone] stands 590 nM; under `Cc1ccccc1OC1CCN(C(=O)Cn2nc(C(=O)N3CCN(C(=O)CO)CC3)c3c2CCCC3)CC1` [Example 38, 2-hydroxy-1-(4-(1-(2-oxo-2-(4-(o-tolyloxy)piperidin-1-yl)ethyl)-4,5,6,7-tetrahydro-1H-indazole-3-carbonyl)piperazin-1-yl)ethanone], 33 nM; under `Cc1cc(F)ccc1OC1CCN(C(=O)Cn2nc(C(=O)N3CC[C@H](O)[C@H](F)C3)c3c2CCCC3)CC1` (racemic) [Example 77, 1-[4-(4-fluoro-2-methyl-phenoxy)-1-piperidyl]-2-[3-[rac-(3R,4S)-3-fluoro-4-hydroxy-piperidine-1-carbonyl]-4,5,6,7-tetrahydroindazol-1-yl]ethanone], 267 nM. For `Cc1ccccc1SC1CCN(C(=O)Cn2nc(C(=O)N3CC[C@@H](O)[C@@H](F)C3)c3c2C[C@H]2C[C@@H]32)CC1` [Example 177, 2-((3bR,4aR)-3-((3S,4R)-3-Fluoro-4-hydroxypiperidine-1-carbonyl)-3b,4,4a,5-tetrahydro-1H-cyclopropa[3,4]cyclopenta[1,2-c]pyrazol-1-yl)-1-(4-(o-tolylthio)piperidin-1-yl)ethanone], the IC50 is 532 nM.

Staying with this test, now noted: human whole blood, LPS and IFNγ 100 ng/mL, 18 h, kynurenine by LC/MS/MS; read-out: IDO1 human whole blood assay, IC50.
Regarding `NC(=O)CN1CCN(C(=O)c2nn(CC(=O)N3CCC(Oc4ccccc4Cl)CC3)c3c2CCCC3)CC1` [Example 5, 2-(4-(1-(2-(4-(2-chlorophenoxy)piperidin-1-yl)-2-oxoethyl)-4,5,6,7-tetrahydro-1H-indazole-3-carbonyl)piperazin-1-yl)acetamide], the IC50 was found to be 543 nM. Same read-out and setting: under `CCOC(=O)c1nn(CC(=O)N2CC[C@@H](Oc3ccccc3Cl)C[C@H]2C)c2c1CCCC2` [Example 11, ethyl 1-(2-((2R,4R)-4-(2-chlorophenoxy)-2-methylpiperidin-1-yl)-2-oxoethyl)-4,5,6,7-tetrahydro-1H-indazole-3-carboxylate] stands 378 nM.
